Measured values published in patent publication US8362000B2, “Azetidinyl diamides as monoacylglycerol lipase inhibitors” (Janssen Pharmaceutica NV, priority 2009, dated 2013).
Positions count from the first letter of the chain named. pIC50, pKd: −log10 of the molar value. Read-outs that look alike come from different tables or passages of the source.

How the values were obtained:
[1] = target: T1, purified wild type MGL (wt-MGLL 6H-11-313) (Homo sapiens, UniProt Q99685)
T1 sequence (Q99685 1-303): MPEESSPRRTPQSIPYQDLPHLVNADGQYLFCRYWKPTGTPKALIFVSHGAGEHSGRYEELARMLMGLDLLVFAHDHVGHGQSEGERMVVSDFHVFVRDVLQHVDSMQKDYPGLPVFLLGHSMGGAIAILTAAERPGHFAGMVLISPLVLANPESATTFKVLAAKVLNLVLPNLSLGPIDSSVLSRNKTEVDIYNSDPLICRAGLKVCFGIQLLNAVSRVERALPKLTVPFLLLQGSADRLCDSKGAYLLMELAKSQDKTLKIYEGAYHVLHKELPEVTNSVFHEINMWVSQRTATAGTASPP

[2] = system: CFA-induced paw radiant heat hypersensitivity; experiment: CFA-induced paw radiant heat hypersensitivity; type: in vivo, rat; details: 30 mg/kg p.o., HPβCD, last time point 180 or 300 min; for inhibition in vivo at 30 mg/kg: Rattus norvegicus, po
[3] = target: T2, MGL (Rattus norvegicus, UniProt Q8R431); experiment: 2-AG accumulation assay in rat brain homogenate; type: biochemical; details: rat brain homogenate, 2-AG accumulation as percent of vehicle; for 2-AG accumulation, % of vehicle control at 1 µM: read-out: Rat Brain 2AG % VehCntrl (%) @ 1 μM; for 2-AG accumulation, % of vehicle control at 0.1 µM: compound 0.1 μM, read-out: Rat Brain 2AG % VehCntrl (%) @ 0.1 μM; for 2-AG accumulation, % of vehicle control at 10 µM: compound 10 μM, read-out: Rat Brain 2AG % VehCntrl (%) @ 10 μM
T2 construct: one g rat brain was homogenized using a Polytron homogenizer; from tissue; host or cells: rat brain homogenate
T2 sequence (Q8R431 1-303): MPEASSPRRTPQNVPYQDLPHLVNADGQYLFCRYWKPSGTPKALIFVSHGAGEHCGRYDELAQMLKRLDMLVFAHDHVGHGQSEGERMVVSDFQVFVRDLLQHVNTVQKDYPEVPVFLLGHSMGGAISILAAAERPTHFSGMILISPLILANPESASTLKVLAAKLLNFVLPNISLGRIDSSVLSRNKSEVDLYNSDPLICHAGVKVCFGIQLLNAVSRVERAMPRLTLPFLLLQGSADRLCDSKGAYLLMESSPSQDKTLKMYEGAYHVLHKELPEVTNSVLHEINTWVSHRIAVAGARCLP

[4] = target: T3, mutant MGL (Homo sapiens, UniProt Q99685, L169S/L176S); experiment: MGL ThermoFluor assay - mutant; type: binding; details: for Kd: ThermoFluor, read-out: MGL mutant ThermoFluor qKd (μM) (using qNMR conc.)
T3 sequence (Q99685 1-303 L169S/L176S): T1 sequence (Q99685 1-303) with L169S, L176S

[5] = group mean values, read-out: CFA thermal hypersensitivity Method 1: peak % reversal
[6] = ThermoFluor concentration-response, read-out: MGL mutant ThermoFluor Kd
[7] = individual animal values, read-out: CFA thermal hypersensitivity Method 2: peak % reversal
[8] = ThermoFluor thermal stability binding assay, read-out: MGL mutant ThermoFluor Kd
[9] = compound concentration measured by qNMR

Compound | pIC50 [1] | inhibition in vivo at 30 mg/kg [2, 5] | 2-AG accumulation, % of vehicle control at 1 µM ([3]; compound 1 μM) | pKd [4, 6] | further results
O=C(c1ccccc1)N1CCN(C2CN(C(=O)c3ccc4c(-c5cccc(C(F)(F)F)c5)c[nH]c4c3)C2)CC1 [Cpd 572] | 7.51 | -5.1% | 397% | 7.52 | 
O=C(c1cscn1)N1CCN(C2CN(C(=O)c3sc4cc(C(F)(F)F)ccc4c3F)C2)CC1 [Cpd 653] | 8.15 | -10.7% | 861% | 7.96 | 
Cc1c(C(=O)N2CC(N3CCN(C(=O)c4ccc[nH]4)CC3)C2)sc2cc(C(F)(F)F)ccc12 [Cpd 657, 1-(1-{[3-Methyl-6-(trifluoromethyl)-1-benzothiophen-2-yl]carbonyl}azetidin-3-yl)-4-(1H-pyrrol-2-ylcarbonyl)piperazine] | 8.05 | 66% | 581% | 8.70 | pKd ([4]; compound concentration measured by qNMR, read-out: MGL mutant ThermoFluor qKd (using qNMR conc.)): 8.70
O=C(c1ccc(Oc2cccc(Cl)c2)c(F)c1)N1CC(N2CCN(C(=O)c3cscn3)CC2)C1 [Cpd 662] | 7.96 | 21% | 274% | 7.00 | inhibition in vivo at 30 mg/kg [2, 7]: 24%
O=C(c1ccc(Oc2ncc(C(F)(F)F)cc2Cl)cc1)N1CC(N2CCN(C(=O)c3nccs3)CC2)C1 [Cpd 663] | 7.96 | 33.9% | 588% | 7.70 | 
O=C(c1cscn1)N1CCN(C2CN(C(=O)c3sc4cc(C(F)(F)F)c(F)cc4c3Cl)C2)CC1 [Cpd 666] | 7.89 | -3.1% | 359% |  | pKd [4, 8]: 8.70; Kd [4, 9]: 0.003 µM
O=C(c1cscn1)N1CCN(C2CN(C(=O)c3sc4c(F)c(C(F)(F)F)ccc4c3Cl)C2)CC1 [Cpd 670] | 7.82 | 20.9% | 650% |  | pKd [4, 8]: 9.00; Kd [4, 9]: 0.001 µM
Cc1c(C(=O)N2CC(N3CCN(C(=O)c4cscn4)CC3)C2)sc2cc(C(F)(F)F)ccc12 [Cpd 674, 1-(1-{[3-Methyl-6-(trifluoromethyl)-1-benzothiophen-2-yl]carbonyl}azetidin-3-yl)-4-(1,3-thiazol-4-ylcarbonyl)piperazine] | 7.72 | 57.7% | 891% | 8.52 | 
O=C(c1nccs1)N1CCN(C2CN(C(=O)c3sc4cc(C(F)(F)F)c(F)cc4c3Cl)C2)CC1 [Cpd 900] | > 8.30 | 8.5% | 543% |  | pKd [4, 8]: 9.00; Kd [4, 9]: 0.001 µM
C/C(=C\c1ccc(Cl)cc1)c1c(C)c(C(=O)N2CC(N3CCN(C(=O)c4nccs4)CC3)C2)nn1-c1ccc(Cl)cc1Cl [Cpd 1010] | > 8.30 |  |  |  | CFA thermal hypersensitivity Method 1: peak % reversal ([2]; group mean values): 23.4%; Rat Brain 2AG % VehCntrl (%) @ 1 μM ([3]; compound 1 μM): 1953%; pKd ([4]; MGL mutant ThermoFluor Kd, ThermoFluor concentration-response): 7.77; pKd ([4]; MGL mutant ThermoFluor qKd (using qNMR conc.), compound concentration measured by qNMR): 7.40
O=C(c1ccc(-c2cccc(C(F)(F)F)c2)c(F)c1)N1CC(N2CCN(C(=O)c3cscn3)CC2)C1 [Cpd 1070, 1-(1-{[2-Fluoro-3′-(trifluoromethyl)biphenyl-4-yl]carbonyl}azetidin-3-yl)-4-(1,3-thiazol-4-ylcarbonyl)piperazine] | 8.10 | 25.7% | 551% |  | inhibition in vivo at 30 mg/kg [2, 7]: 23.1%; pKd [4, 8]: 8.22
O=C(c1ccc(-c2cccc(C(F)(F)F)c2)c(Cl)c1)N1CC(N2CCN(C(=O)c3cscn3)CC2)C1 [Cpd 1102, 1-(1-{[2-Chloro-3′-(trifluoromethyl)biphenyl-4-yl]carbonyl}azetidin-3-yl)-4-(1,3-thiazol-4-ylcarbonyl)piperazine] | 7.89 | 38% | 878% |  | inhibition in vivo at 30 mg/kg [2, 7]: 45.3%; pKd [4, 8]: 8.22
O=C(c1cscn1)N1CCN(C2CN(C(=O)c3ccc(-c4ccccc4)cc3F)C2)CC1 [Cpd 1108, 1-{1-[(3-Fluorobiphenyl-4-yl)carbonyl]azetidin-3-yl}-4-(1,3-thiazol-4-ylcarbonyl)piperazine] | 7.85 | 84.9% | 204% | 7.20 | inhibition in vivo at 30 mg/kg [2, 7]: 99.2%; 2-AG accumulation, % of vehicle control at 0.1 µM [3]: 117%; 2-AG accumulation, % of vehicle control at 10 µM [3]: 456%
O=C(c1cccc(-c2ccc(F)cc2F)c1)N1CC(N2CCN(C(=O)c3nccs3)CC2)C1 [Cpd 1117, 1-{1-[(2′,4′-Difluorobiphenyl-3-yl)carbonyl]azetidin-3-yl}-4-(1,3-thiazol-2-ylcarbonyl)piperazine] | 7.80 | 23.2% | 437% | 6.67 | 
O=C(c1cccc(-c2cccc(F)c2)c1)N1CC(N2CCN(C(=O)c3nccs3)CC2)C1 [Cpd 1124] | 7.72 | 88.1% | 506% | 6.60 | 
O=C(c1ccc2c(ccn2-c2ccc(F)cc2F)c1)N1CC(N2CCN(C(=O)c3cscn3)CC2)C1 [Cpd 1139, 1-(2,4-Difluorophenyl)-5-({3-[4-(1,3-thiazol-4-ylcarbonyl)piperazin-1-yl]azetidin-1-yl}carbonyl)-1H-indole] | 7.57 | 43.8% | 654% | 7.77 | 
O=C(c1ccc2nc(-c3ccccc3)sc2c1)N1CC(N2CCN(C(=O)c3cscn3)CC2)C1 [Cpd 1187, 2-Phenyl-6-({3-[4-(1,3-thiazol-4-ylcarbonyl)piperazin-1-yl]azetidin-1-yl}carbonyl)-1,3-benzothiazole] | 7.04 | 16.3% | 319% | 6.71 | 
O=C(c1cscn1)N1CCN(C2CN(C(=O)c3ccc(-c4ccccc4)cc3Cl)C2)CC1 [Cpd 1221] | 6.59 | 44.7% | 198% | 7.09 | inhibition in vivo at 30 mg/kg [2, 7]: 46.7%; 2-AG accumulation, % of vehicle control at 0.1 µM [3]: 198%; 2-AG accumulation, % of vehicle control at 10 µM [3]: 522%
O=C(c1ccc2c(ccn2-c2ccc(C(F)(F)F)cc2)c1)N1CCN(C2CN(C(=O)c3nccs3)C2)CC1 [Cpd 1338, 5-({4-[1-(1,3-Thiazol-2-ylcarbonyl)azetidin-3-yl]piperazin-1-yl}carbonyl)-1-[4-(trifluoromethyl)phenyl]-1H-indole] | > 8.30 | 86.3% | 877% | 7.82 | 
O=C(c1ccc2c(-c3ccc(C(F)(F)F)cc3)c[nH]c2c1)N1CC(N2CCN(C(=O)c3nccs3)CC2)C1 [Cpd 1340] | > 8.30 | 13.1% | 761% | 9.00 | 
O=C(c1ccc2c(cnn2-c2ccccc2)c1)N1CC(N2CCN(C(=O)c3nccs3)CC2)C1 [Cpd 1360, 1-Phenyl-5-({3-[4-(1,3-thiazol-2-ylcarbonyl)piperazin-1-yl]azetidin-1-yl}carbonyl)-1H-indazole] | > 8.30 | 40.5% | 576% | 8.10 | inhibition in vivo at 30 mg/kg [2, 7]: 40.5%
